In patent US20060159639A1, “Pseudo body odor composition and perfume composition for inhibiting body odor” (priority 2003, published 2006):

Test: Suppression test of Experimental Example 1: masking and harmonizing effect in a cup, four expert panelists;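 on harmonizing: score 1 means in harmony 0 indefinite and −1 not in harmony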
Conditions: 200 μl pseudo body odor composition of Example 4 and 10 μl perfume on filter papers in sealed about 500 ml cup, after 30 minutes, four expert panelists; for Masking: scale 0-3; for Harmonizing: scale −1 to 1
Experimental: In the present invention, the selection of the above component (I), component (II) and component (III) was carried out as follows. That is, one of the pseudo body odor compositions mentioned above and a target fragrance component were mixed and left at room temperature for 30 minutes. Thereafter, evaluations of the masking and harmonizing effects to the acid odor were carried out by four expert panelists.
After 30 minutes, a hole of about 1 cm in diameter was formed in the aluminum foil and the investigations of masking effect and the harmonizing effect were carried out according to following evaluation criteria by four expert panelists.
3: Excellent in the masking.
2: Substantially excellent in the masking.
1: Slightly sensible of the body odor (sweat odor and armpit odor).
0: Sensible of the body odor (sweat odor and armpit odor) (insufficient in the masking)

Compound	Masking	Harmonizing
2-butyl-4,6-dimethyl-dihydro-pyran [Vigorose]	3	1
C=CC(C)(O)CCC=C(C)CC (mixture of isomers) [Ethyl linalool]	1.5 points	0
Cc1cccc(CC(C)(C)CO)c1 [2,2-Dimethyl-3-(3-methylphenyl)propanol]	0.5 points	−1
CC(C)=CCCC(C)CCCC(C)C=O (centres unmarked) [2,6,10-Trimethyl-9-undecenal]	1	−1
CC(C)=CCCC(C)C=O (centres unmarked) [2,6-Dimethyl-5-heptenal]	3	1
CCCCCCCCCC(C)C=O (centres unmarked) [2-Methyl undecanal]	–	0
CC(CO)c1ccccc1 (centres unmarked) [2-Phenyl propanol]	1	−1
CC(=O)OC1CCCCC1C(C)(C)C (centres unmarked) [2-tert-Butylcyclohexyl acetate]	2	1
COc1ccc(C=O)cc1 [4-Methoxybenzaldehyde]	2.5 points	1
CCC=C(C)C(O)CCCCC (centres unmarked) [4-Methyl-3-decene-5-ol]	2.5 points	0
O=CCCC=C1CC2CC1C1CCCC21 (centres unmarked) [4-Tricyclodecylene butanal]	1.5 points	0
CC(=O)c1c(C)cc(C(C)(C)C)cc1C [4-tert-Butyl-2,6-dimethylacetophenone]	2	0
CCCOC(C)OCCc1ccccc1 (centres unmarked) [Acetoaldehydephenylethylpropyl acetal]	2.5 points	1
C=CCOC(=O)COCCC(C)C [Allyl amyl glycolate]	3	1
C=CCOC(=O)CCCCC [Allyl caproate]	3	1
C=CCOC(=O)CCC1CCCCC1 [Allyl cyclohexyl propionate]	2	0
C=CCCC(=O)/C=C/C1C(C)=CCCC1(C)C (centres unmarked) [Allylionone]	2.5 points	0
CCC(O)COC1CCCCC1C(C)(C)C (centres unmarked) [Amber core, 1-(2-tert-butylcyclohexyloxy)butane-2-ol]	0.5 points	−1
CCCC(O)CCC1C(C)CCCC1(C)C (centres unmarked) [Ambestol, 1-(2,2,6-trimethylcyclohexyl)-3-hexanol]	0	−1
O=C1CCCC=CCCCCCCCCCC1 [Ambretone, 5-cyclohexadecene-l-one]	1.5 points	0
CC1(C)CCCC2(C)C1CCC1(C)OCCC12 (stereo not drawn) [Ambroxan, Decahydro-3α, 6,6,9α-tetramethyldodecanhydronaphto[2,1-b]furan]	2	1
CCCCCOC(=O)c1ccccc1O [Amyl salicylate]	1	0
COc1ccc(COC(C)=O)cc1 [Anisyl acetate]	1.5 points	0
COC(=O)c1ccccc1N=CCC(C)CCCC(C)(C)O (centres unmarked) [Aurantiol, Hydoroxycitronellylidene methyl anthranilate]	2	1

Compound	Masking	Harmonizing
CC(=O)OCc1ccccc1 [Benzyl acetate]	2.5 points	1
O=C(OCc1ccccc1)c1ccccc1O [Benzyl salicylate]	1	−1
CC1(C)C2CCC1(C)C(O)C2 (centres unmarked) [Borneol]	2.5 points	1
CC12CCC(CC1=O)C2(C)C (centres unmarked) [Camphor]	3	1
CC(=O)O[C@]1(C)CC[C@@]23C[C@@H]1C(C)(C)[C@@H]2CC[C@H]3C [Cedryl acetate]	0	−1
CO[C@]1(C)CC[C@@]23C[C@@H]1C(C)(C)[C@@H]2CC[C@H]3C [Cedryl methyl ether]	1	−1
O=C/C=C/c1ccccc1 [Cinnamic aldehyde]	2	0
CC(C)=CCCC(C)=CC=O [Citral]	3	1
CC(C)=CCCC(C)CC=O (centres unmarked) [Citronellal]	3	1
CC(C)=CCCC(C)CCO (centres unmarked) [Citronellol]	2.5 points	1
CC(=O)OCCC(C)CCC=C(C)C (centres unmarked) [Citronellyl acetate]	1.5 points	0
CC(C)=CCCC(C)CC#N (centres unmarked) [Citronellyl nitrile]	3	1
O=c1ccc2ccccc2o1 [Coumarin]	–	1
CC(C)c1ccc(C=O)cc1 [Cumin aldehyde]	1.5 points	−1
CC(C=O)Cc1ccc(C(C)C)cc1 (centres unmarked) [Cyclamen aldehyde, 2-methyl-3-(4-isopropylphenyl)propanal]	1.5 points	−1
CCC(=O)OC1CC2CC1C1CC=CC21 (centres unmarked) [Cyclaprop, tricyclodecenyl propionate]	1	−1
C=CCOC(=O)COC1CCCCC1 [Cyclogalbanate, allyl cyclohexyl oxyacetate]	2.5 points	1
C/C=C/C(=O)C1=C(C)C=CCC1(C)C [Damascenone]	2	1
CCCCCCCCCC=O [Decanal]	1	−1
CCCCCC1=C(C)CCC1=O [Dihydrojasmone, 3-methyl-2-pentyl-2-cyclopentene-1-one]	1	0
C=CC(C)CCCC(C)(C)O (centres unmarked) [Dihydromyrcenol]	1.5 points	−1
CC(C)CC1CC(C)(O)CCO1 (centres unmarked) [Dihydroroseoxide, 4-methyl-2-(2-methylpropyl)tetrahydro-2H-4-pyranol]	1.5 points	0
CC(C)CCCC(C)CCO (centres unmarked) [Dimethyl octanol]	1.5 points	0
CC(=O)OC(C)(C)Cc1ccccc1 [Dimethylbenzyl carbinyl acetate]	1	−1

Compound	Masking	Harmonizing
c1ccc(Oc2ccccc2)cc1 [Diphenyl oxide]	1.5 points	0
CCCCCCCCCCCC=O [Dodecanal]	1.5 points	−1
CCOC(=O)CC(C)=O [Ethyl acetoacetate]	3	1
CCOC(=O)C(C)CC (centres unmarked) [Ethyl-2-methyl butylate]	3	1
CCCC(C)C(=O)OCC (centres unmarked) [Ethyl-2-methyl valerate]	3	1
CCOC(=O)C1OC1(C)c1ccccc1 (centres unmarked) [Ethyl-3-methyl-3-phenyl glycidate]	2	0
C=CCc1ccc(O)c(OC)c1 [Eugenol]	1.5 points	0
COC(=O)c1c(C)cc(O)c(C)c1O [Evernyl, methyl dihydroxydimethyl benzoate]	0	−1
C=C(C)C1CC=C(C)C(=O)C1 (centres unmarked) [Example 1-Carvone, 1-Carvone]	3	1
CCCCCCCCC=CCC=O [Example 3-Dodecenal, 3-Dodecenal]	0.5 points	−1
C=CCCCCCCCCO [Example 9-Decen-1-ol, 9-Decen-1-ol]	1.5 points	0
CCc1ccc(CC(C)(C)C=O)cc1 [Floralozone, p-ethyl-α,α-dimethyl phenyl propyl aldehyde]	1.5 points	0
CC1CC(C)(c2ccccc2)OC(C)O1 (centres unmarked) [Floropal, 2,4,6-trimethyl-4-phenyl-1,3-dioxane]	1	0
CCOC(=O)C12CCCC1C1CCC2C1 (centres unmarked) [Fluitate, ethyl tricyclo[5.2.1.0^2,6]decan-2-yl carboxylate]	1.5 points	−1
CCOC(=O)CC1(C)OCCO1 [Fraistone, ethyl (2-methyl-[1,3]dioxolane-2-yl) acetate]	1	−1
CC(=O)OC/C=C(\C)CCC=C(C)C [Geranyl acetate]	1	−1
CC(C)=CCCC(C)=CC#N [Geranyl nitrile]	3	1
CC(C=O)Cc1ccc2c(c1)OCO2 (stereo not drawn) [Helional, α-methyl-3,4-methylene dioxyhydrocinnamic aldehyde]	1	0
O=Cc1ccc2c(c1)OCO2 [Heliotropine]	1.5 points	0
CCCCCC=O [Hexanal]	3	1
CCCCCCOC(=O)c1ccccc1O [Hexyl salicylate]	1	−1
CC(C)=CCCC1=CCC(C)(C=O)CC1 (centres unmarked) [Homomyracaldehyde, 1-methyl-4-(4-methyl-3-pentenyl)-3-cyclohexen carboxy aldehyde]	1	−1
CC(CC=O)CCCC(C)(C)O (centres unmarked) [Hydroxycitronellal]	1	0
